Earlier results, collected in article PMC7933701 (Biochemistry and Biophysics Reports, 2021).

System: PSA
Details: peptide carrier of doxorubicin prodrug

## Mu-His-Ser-Ser-Lys-Leu-Gln-Leu
  hydrolysis by PSA (in words): precisely hydrolysable by PSA
